1 molecule from patent US6015838A, “Aqueous film-forming foam compositions” (3M Innovative Properties Company, priority 1996, dated 2000) can be followed below.

Entries after “also recorded” stand apart in the source; their conditions may differ.

Data set [1] deals with rats. The data set is described as follows: Monitoring of volatile degradation products exhaled by a dosed rat (uptake desiccator jar chamber). The data set is classed as in vivo. The procedure:
Additional biological testing of C7F15 CF(CF3)COO^- NH4^+ in rats was conducted using the following test apparatus. An uptake desiccator jar chamber was designed with top and bottom portions, the top portion equipped with an inlet port, an outlet port, oxygen monitor and pressure gage. An oxygen gas tank supplied oxygen into the inlet port, and the oxygen level in the chamber was maintained at a normal ambient level as measured by the oxygen monitor and pressure gage. The outlet port was connected in series with a carbon dioxide scrubber and particulate filter, which in turn was connected to a loop containing a stainless steel bellows pump operating at about 2 L/min. Most of the gas in the loop was recycled into the inlet port, but about 100 mL/min was directed through a secondary loop to a gas chromatograph equipped with a 0.5 mL gas sampling loop.
A rat dosed at 500 mg/kg was placed in the bottom portion of the chamber, the top portion was attached, and the assembled chamber was placed in an ice-filled pan to allow for the condensation of water. The oxygen flow was started, and the exhaust gases were monitored for the presence of CF3 CF=CF(C6 F13) and C7 F15 CFHCF3, aqueous degradation products of C7 F15 CF(CF3)COOH, using known standards of this olefin and hydride in the gas chromatograph. […] After 24 minutes, one slight chromatographic peak was noted, corresponding to the monohydride. After 92 minutes, the peak became noticeably larger and a second peak formed, corresponding to the olefin.

Data set [2] can be described thus: Surface tension and critical micelle concentration (CMC) of aqueous surfactant solutions. The data set is classed as physicochemical. The settings on record: Table 5; deionized water, at CMC.
Source text: Critical Micelle Concentration (CMC): The critical micelle concentration is defined as the concentration at which further surface tension is no longer lowered with increasing levels of surfactant. […] Surface tension is then plotted vs. log concentration and the data points are connected. The resulting curve has a nearly horizontal flat portion at concentrations above the CMC and has a negative steep slope at concentrations below the CMC. The CMC is defined as the lowest surfactant concentration in the horizontal flat portion of the curve.
(§1) Then the critical micelle concentration (CMC) was determined for each surfactant.
as §1

Data set [3] is described as follows: Thermogravimetric analysis of neat perfluorocarboxylate salts. The data set is classed as physicochemical. The settings on record: neat salt, 10° C./min, nitrogen. An excerpt: Thermal degradation measurements were made on a series of neat perfluorocarboxylate salts, including several ax-branched open chain structures (Examples N2-N9), a primarily linear open chain structure (Example N10--Fluorad™ FC-143 Fluorochemical Surfactant, commercially available from 3M Company, St. Paul, Minn.), and a closed chain (i.e., cyclic) structure (Example N11--made by the electrochemical fluorination of benzoic acid and hydrolysis in the presence of KOH, as described in U.S. Pat. No. 2,567,011 (Diesslin et al.)).
The perfluorocarboxylate salts were tested using a Perkin-Elmer TGA 7 thermogravimetric analysis apparatus and a salt sample size of approximately 5 mg, a heating rate of 10° C./min, and a nitrogen gas flow rate of 40-45 mL/min. Using the TGA 7 software, the following temperatures were recorded: (1) the onset temperature of decomposition, (2) the temperature at which 50% of the sample weight was lost, and (3) the temperature at which 90% of the sample weight was lost.

Data set [4] in a line: Emulsion polymerization of hexafluoropropylene and vinylidene fluoride with surfactant as emulsifier. The note with it: 3500 ppm emulsifier, 78° C. An excerpt: The following procedure was used to evaluate C7 F15 CF(CF3)COO^- NH4^+ (from Ex. M1) as an emulsifier to copolymerize hexafluoropropylene (HFP) and vinylidene fluoride.
A 1 gallon, vertically agitated stainless steel reactor with pressure and temperature controls was evacuated and twice purged with nitrogen. Using an isolated vacuum, a solution comprised of 2 g of ammonium persulfate (initiator) and 6 g of dipotassium phosphate dissolved in 2800 g of deionized water was introduced into the reactor. The remaining vacuum on the reactor was vented with nitrogen, and the solution was degassed twice under agitation using alternate vacuum and nitrogen purges. […]
The resulting latex polymer was drained from the reactor, and percent solids of the latex was determined to be 25% by weight as measured by drying 10 g of latex in a forced air oven for 16 hours at 105° C.
The reactor body was separated from the reactor head, and a visual inspection of the reactor was made to determine the amount of coagulated polymer in the reactor (the amount should be minimal in a good polymerization reaction). A qualitative rating was assessed, ranging from "none" to "little" to "some." […]
Particle size in the latex was determined using […] on a Coulter sub-micron particle size analyzer. […]

In data set [5] the test system is rats. Put plainly: Acute LD50, one-time feeding study of rats. The data set is classed as in vivo, rat. The note with it: one-time feeding, rats. The procedure:
Acute LD50 measurements for a one-time feeding study of rats were determined over a 21 day period for both the a-branched perfluorocarboxylate salt, C7 F15 CF(CF3)COO^- NH4^+, and its straight chain isomer, CF3 (CF2)8 COO^- NH4^+.

Take `O=C(O)C(F)(C(F)(F)F)C(F)(F)C(F)(F)C(F)(F)C(F)(F)C(F)(F)C(F)(F)C(F)(F)F` (stereo not drawn) [Example M14, C7 F15 CF(CF3)COO^- H4 N^+]: in the data set with rats [1] (rat dosed at 500 mg/kg), the “post-exposure toxicity (death) or wasting syndrome” value was “no evidence of toxicity (death) or evidence of wasting syndrome”, the “time at which monohydride peak was noted in exhaust gases” value stood at 24 min and the “time at which second peak (olefin) formed in exhaust gases” value amounted to 92 min. Moreover, in the data set on rats [1] (rat dosed at 500 mg/kg, 217 minutes), the “monohydride and olefin peaks in exhaust gases after 217 minutes” value is reported as “both peaks became significantly larger”. The “olefin or hydride in exhaust gases, initially” value with rats [1] (rat dosed at 500 mg/kg, initially) was “no olefin or hydride were detected”. Besides, the metabolism and elimination result in the data set with rats [1] (rat, in words) was “metabolized by the rat to volatile metabolites which were eliminated from the rat via transpiration”. For the same molecule, the “Surf. Tens. (surface tension at the CMC)” value in data set [2] is given as 16.5 dynes/cm. Further, in data set [3], the “onset temperature of decomposition” value is 151 °C, the “temperature for 50% loss” value was 163 °C and the “temperature for 90% loss” value is 174 °C. Besides, the “Latex Stability” value in data set [4] is 0. Moreover, in the data set with rats [5], the “time after which rats began regaining weight” value is listed as 3 days, the “time of deaths from toxic doses” value is 2 to 3 days and the wasting syndrome entry was “No wasting syndrome was noted”. Besides, the “acute toxicity (in words)” value in the data set on rats [5] (listed as C7 F15 CF(CF3)COO^- NH4^+) is given as “relatively low toxicity; also recorded: only slightly toxic”.
